# Source: publication PMC7529893, “Structural basis for substrate recognition and chemical inhibition of oncogenic MAGE ubiquitin ligases” (Nature Communications, 2020)
# Molecular target: T1, MAGE-A11:PCF11 interaction (GST-MAGE-A11 MHD and FAM-PCF11_4) (Homo sapiens, UniProt P43364)
# T1 construct: GST-MAGE-A11 MHD (human MAGE-A11 MHD amino acid 218-429); made in house; host or cells: E. coli BL21(DE3)
# T1 sequence (P43364 218-429): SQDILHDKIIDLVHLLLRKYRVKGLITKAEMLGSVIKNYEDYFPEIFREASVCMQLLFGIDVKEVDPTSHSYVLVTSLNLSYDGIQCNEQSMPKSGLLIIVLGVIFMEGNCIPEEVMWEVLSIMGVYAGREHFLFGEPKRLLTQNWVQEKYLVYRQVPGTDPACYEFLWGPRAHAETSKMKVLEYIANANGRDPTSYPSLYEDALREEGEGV
# Assay: TR-FRET dose response test of compounds for disruption of MAGE-A11:PCF11 binding
# Conditions: not given
# Method: The TR-FRET assay buffer with a formula of 50 mM Tris pH 7.5, 20 mM MgCl2, 0.1 mg/ml BSA and 1 mM DTT was freshly prepared before each experiment. All TR-FRET assays were performed in black 384-well plates with 20 µl/well assay volume in the TR-FRET assay buffer at room temperature (~25 °C). All peptides or compounds were solubilized in DMSO. To test the competitive activity of peptides or compounds against the interaction between GST-MAGE-A11 MHD and FAM-PCF11_4 peptide, 10 µl/well peptide or compound at specified concentration was dispensed into a black 384-well low volume plate, followed by 5 µl/well FAM-PCF11_4 (800 nM), 5 µl/well Tb-anti-GST (20 nM), and GST-MAGE-A11 MHD (20 nM). The assay components in each well was then mixed by shaking the plate on an IKA MTS 2/4 digital microtiter plate shaker (IKA Works; Wilmington, NC, USA) for 1 min. The plate was further centrifuged in an Eppendorf 5810 centrifuge with an A-4-62 swing-bucket rotor (Eppendorf AG, Hamburg, Germany) at 201 g for 30 s. The plate was then incubated for 90 min with a lid to avoid light exposure to the assay components. After incubation, the fluorescent emission signals at 520 nm and 490 nm channels of individual wells were measured with a PHERAstar FS plate reader (BMG Labtech; Durham, NC, USA) by using a 340 nm excitation filter, 100 µs delay time, and 200 µs integration time. The TR-FRET fluorescence emission ratio (TR-FRET signal) for each well was presented as 10,000 × 520 nm/490 nm, which was used directly for curve fitting, or further converted to %Inhibition based on the respective positive and negative controls. The graphic software GraphPad Prism 4.81 (GraphPad Software; La Jolla, CA, USA) was used to generate curves and derive IC50 values of tested peptides or compounds, if applicable.
# TR-FRET screen for identifying MAGE-A11 small molecule inhibitors was performed as follows. The primary one-concentration screening and subsequent 10 or 20-concentration dose-response tests were accomplished with an automated High Throughput Screening system (HighRes Biosolutions, Beverly, MA)[30]. In the primary screening, 15 µl/well FAM-PCF11_4 (267 nM) was first dispensed with a Multidrop Combi Reagent Dispenser (Thermo Fisher Scientific, Waltham, MA) to black 384-well low-volume assay plates. The plates were spun down with a Velocity11 VSpin microplate centrifuge (Agilent Technologies, Santa Clara, CA). In total, 30 nl/well of 10 mM compound/DMSO solutions, or DMSO alone, were transferred from compound plates (the St. Jude FDA drug and bioactive library, Drug-like library and Lead-like library) or a control plate to the assay plates with a Pin Tool (V&P Scientific, San Diego, CA). The compounds were arrayed in columns 3–12 and columns 15–24 of compound plates. The controls were arrayed in columns 1, 2, 13, and 14 of a compound plate. In all, 5 µl/well Tb-anti-GST (20 nM) and GST-MAGE-A11 (20 nM) or 5 µl/well Tb-anti-GST (20 nM) alone was then dispensed to selected wells with a Multidrop Combi Reagent Dispenser. The final assay volume was 20 µl/well. The final DMSO concentration was 0.25% (v/v) (0.1% (v/v) from the FAM-PCF11_4 DMSO stock solution and 0.15% (v/v) from the compound-DMSO solution or the DMSO for the control wells). The final tested compound concentration was 15 µM. The final FAM-PCF11_4 concentration was 200 nM and the final Tb-anti-GST concentration was 5 nM. The final GST-MAGE-A11 concentration was 5 nM except for those selected positive control wells in which GST-MAGE-A11 was not presented. The plates were then shaken with a big bear shaker (Big Bear Automation, Santa Clara, California) and spun down with the Velocity11 VSpin microplate centrifuge for 20 s. The plates were then incubated at room temperature in a Liconic incubator (Liconic US, Woburn, MA) for 90 min. The TR-FRET signals for individual wells were measured with a PHERAstar FS plate reader. The %Inhibition of each tested inhibitor was calculated by using Eq. 1.
row,SMILES,IC50 [µM]
1,COP(=O)(OC)c1nc(-c2ccc(Cl)cc2)oc1N1CCOCC1 [SJ000090185-1],17.4

# Same assay, conditions: Dose response TR-FRET screening of nine scaffold groups against MAGE-A11:PCF11; read-out: consensus IC50
row,IC50 [µM],SMILES
1,25,Fc1ccc(-c2ccc3c(NCCCNCc4cccc5c4OCO5)ccnc3c2)cc1 [SJ000311240-1]
2,33.6,COc1cc(Cc2ccc3c(NCCCNCc4cccc(OC)c4O)ccnc3c2)cc(OC)c1 [SJ000311311-1]
3,24.2,COc1ccc(F)cc1CNCCCNc1ccnc2cc(C3CCCCC3)ccc12 [SJ000311265-1]
4,20.6,Fc1ccc(Cc2ccc3c(NCCCNCc4cccc5c4OCO5)ccnc3c2)c(Cl)c1 [SJ000311324-1]
5,9.52,COc1cccc(CNCCCNc2ccnc3cc(-c4ccc(C(F)(F)F)cc4)ccc23)c1O [SJ000311279-1]
6,43,CCC(CC)c1ccc2c(NCCCNCc3cc(F)ccc3OC)ccnc2c1 [SJ000311269-1]
7,36.8,COc1cccc(Oc2ccc3c(NCCCNCc4cc(F)ccc4OC)ccnc3c2)c1 [SJ000311217-1]
8,29.9,COc1ccc(F)cc1CNCCCNc1ccnc2cc(-c3ccc4c(c3)OCO4)ccc12 [SJ000311293-1]
9,69.1,COc1ccc(C(F)(F)F)cc1CNCCCNc1ccnc2cc(C(F)(F)F)ccc12 [SJ000521064-1]
10,51,COc1cccc(CNCCCNc2ccnc3cc(Cc4ccc(C#N)cc4)ccc23)c1O [SJ000311303-1]
11,10.3,COc1ccc(F)cc1CNCCCNc1ccnc2cc(-c3cccc4ccccc34)ccc12 [SJ000311277-1]
12,13.8,COc1cccc(CNCCCNc2ccnc3cc(Cc4c(Cl)cccc4Cl)ccc23)c1O [SJ000311315-1]
13,9.04,COc1ccc(F)cc1CNCCCNc1ccnc2cc(Cc3cc(C)cc(C)c3)ccc12 [SJ000311321-1]

# Continued, compound first:
row,SMILES,IC50 [µM]
1,CCCn1c(=O)c2[nH]c(-c3ccccc3)nc2n(CCC)c1=O [SJ000832251-1],> 70
2,Cc1ccc(NC2=C(N)C(=O)c3ccccc3C2=O)cc1 [SJ000562618-1],60.6
3,NC1=C(Nc2ccccc2)C(=O)c2ccccc2C1=O [SJ000562543-1],60.8
4,FC(F)(F)c1ccc2c(NCCCNCc3ccc4[nH]ccc4c3)ccnc2c1 [SJ000521054-1],0.397
5,C=C(C)CSc1nc2cc(-c3ccccc3)sc2c(=O)n1CCN1CCOCC1 [SJ000456069-1],0.861
6,Cc1ccc(S(=O)(=O)c2nc(-c3ccccc3Cl)oc2N2CCOCC2)cc1 [SJ000230856-1],4.34
7,CN(C)c1ccc(C2Nc3ccccc3C(=O)N2CCCN2CCOCC2)cc1 (centres unmarked) [SJ000803767-1],> 70
8,CCCCCOc1ccc(N(C(C)=O)C2=C(Cl)C(=O)c3ccccc3C2=O)cc1 [SJ000032724-1],28.3
9,Cc1cc(C)cc(NC2=C(N)C(=O)c3ccccc3C2=O)c1 [SJ000562641-1],55
10,COc1cccc(-c2nc(S(=O)(=O)c3ccc(C)cc3)c(N3CCOCC3)o2)c1 [SJ000038123-1],17.4
11,COc1cc2nc(N(C)CCCNC(=O)C3CCCO3)nc(N)c2cc1OC (centres unmarked) [SJ000286094-9],36.2
12,O=S(=O)(c1ccccc1)c1nc(-c2ccc(Br)cc2)oc1N1CCOCC1 [SJ000244320-1],8.63

# Same assay, conditions: Supplementary Data 3, 59 quinoline compounds; read-out: TR-FRET IC50
row,IC50 [µM],SMILES
1,2.8,"CCCN(CCCNc1ccnc2cc(Cl)ccc12)Cc1ccc2[nH]ccc2c1 [SJ000522746-2, CCCN(CCCNc1ccnc2cc(Cl)ccc12)Cc3ccc4[nH]ccc4c3]"
2,> 70,"Oc1c(F)cc(F)cc1CN(CCCCNc1ccnc2cc(Cl)ccc12)Cc1ccccc1 [SJ000357506-2, Oc1c(F)cc(F)cc1CN(CCCCNc2ccnc3cc(Cl)ccc23)Cc4ccccc4]"
3,> 70,"COc1ccc(C(F)(F)F)cc1CN(CCCCNc1ccnc2cc(Cl)ccc12)Cc1ccccc1 [SJ000520444-1, COc1ccc(cc1CN(CCCCNc2ccnc3cc(Cl)ccc23)Cc4ccccc4)C(F)(F)F]"
4,22.8,"Clc1ccc2c(NCCCNCc3ccc[nH]3)ccnc2c1 [SJ000575192-1, Clc1ccc2c(NCCCNCc3ccc[nH]3)ccnc2c1]"
5,> 70,"Cc1cc(C)cc(Cc2ccc3c(NCCCNCc4ccco4)ccnc3c2)c1 [SJ000311318-2, Cc1cc(C)cc(Cc2ccc3c(NCCCNCc4occc4)ccnc3c2)c1]"
6,> 70,"FC(F)(F)Oc1ccccc1CN(CCCCNc1ccnc2cc(Cl)ccc12)Cc1ccccc1 [SJ000520459-1, FC(F)(F)Oc1ccccc1CN(CCCCNc2ccnc3cc(Cl)ccc23)Cc4ccccc4]"
7,> 70,"CCCN(CCCNc1ccnc2cc(C(F)(F)F)ccc12)Cc1ccccc1OC [SJ000523072-1, CCCN(CCCNc1ccnc2cc(ccc12)C(F)(F)F)Cc3ccccc3OC]"
8,> 70,"CCCN(CCCNc1ccnc2cc(Cl)ccc12)Cc1ccc(CC)cc1 [SJ000523001-1, CCCN(CCCNc1ccnc2cc(Cl)ccc12)Cc3ccc(CC)cc3]"
9,> 70,"Clc1ccc2c(NCCCN(Cc3ccccc3)Cc3c[nH]c4ccccc34)ccnc2c1 [SJ000520433-1, Clc1ccc2c(NCCCN(Cc3ccccc3)Cc4c[nH]c5ccccc45)ccnc2c1]"

# Further lines, the compound ahead of its results:
row,SMILES,IC50 [µM]
1,"CCCN(CCCNc1ccnc2cc(C(F)(F)F)ccc12)CCC(C)(C)C [SJ000520476-1, CCCN(CCCNc1ccnc2cc(ccc12)C(F)(F)F)CCC(C)(C)C]",> 70
2,"CCC(C)CN(CCCCNc1ccnc2cc(Cl)ccc12)Cc1ccccc1 (centres unmarked) [SJ000361208-2, CCC(C)CN(CCCCNc1ccnc2cc(Cl)ccc12)Cc3ccccc3]",> 70
3,CCCCCCNCCCNc1ccnc2cc(C(F)(F)F)ccc12 [SJ000361124-1],57.6
4,"FC(F)(F)Oc1cccc(CN(CCCCNc2ccnc3cc(Cl)ccc23)Cc2ccccc2)c1 [SJ000520457-1, FC(F)(F)Oc1cccc(CN(CCCCNc2ccnc3cc(Cl)ccc23)Cc4ccccc4)c1]",> 70
5,"Fc1ccc(CN(CCCCNc2ccnc3cc(Cl)ccc23)Cc2ccccc2)cc1 [SJ000522725-1, Fc1ccc(CN(CCCCNc2ccnc3cc(Cl)ccc23)Cc4ccccc4)cc1]",> 70

# Same assay, conditions: Supplementary Data 4; read-out: TR-FRET, IC50
row,IC50 [µM],SMILES
1,20.6,c1ccc(-c2ccc3c(NCCCNCc4cccc5c4OCO5)ccnc3c2)cc1 [SJ000311284-01]

# Molecular target: T2, MAGE-A11:PCF11 interaction (GST-MAGE-A11 and FAM-PCF11_4) (Homo sapiens, UniProt P43364)
# T2 construct: GST-MAGE-A11 MHD (human MAGE-A11 MHD amino acid 218-429); made in house; host or cells: E. coli BL21(DE3)
# T2 sequence (P43364 218-429): T1 sequence (P43364 218-429)
# Assay: TR-FRET primary / single point screen at 15 µM
# Type: binding
# Conditions: single point TR-FRET screening of 797 quinoline compounds against MAGE-A11:PCF11
# Summary of the method: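 TR-FRET 520/490 nm emission ratio was read after 90 min at room temperature. Wells held 5 nM GST-MAGE-A11, 5 nM Tb-anti-GST, 200 nM FAM-PCF11_4 and 15 µM compound in Tris pH 7.5 buffer with MgCl2, BSA and DTT. %Inhibition was scaled to DMSO and minus-MAGE-A11 controls.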
row,percent inhibition (TR-FRET),SMILES
1,2.443,Cc1ccc(S(=O)(=O)c2cnc3ccccc3c2N2CCN(c3cc(C)ccc3C)CC2)cc1 [SJ000117084]

# Same assay, conditions: single point TR-FRET screening of quinoline compounds against MAGE-A11:PCF11; 15 µM
row,percent inhibition (TR-FRET),SMILES
1,29.109,COc1cccc(Oc2ccc3c(NCCCNCc4ccco4)ccnc3c2)c1 [SJ000311214]
2,35.6327,FC(F)(F)c1ccc2c(NCCCNCc3cc4ccccc4s3)ccnc2c1 [SJ000521060]
